Key:
[1] = tested on: scopolamine induced dementia in rats; assay: Y-maze test, scopolamine induced dementia in rats (Study 2); type: in vivo, Charles Foster male albino rats; conditions: Donepezil 5 mg/kg i.p.; shilajit effect at 100 mg/kg
Method: 2.2. Animal subjects. Inbred Charles Foster male albino rats (130-180 g) were obtained from the Central Animal House, Institute of Medical Sciences (IMS), Banaras Hindu University (BHU), Varanasi, Uttar Pradesh, India. These were certified to be pathogen free and were randomly distributed into different experimental groups. The rats were kept in the departmental animal house at an ambient temperature of 25±1° C. and 45-55% RH, with a 12-h light/dark cycle (lights on 7:00-19:00 h). The animals had free access to standard pellet chow and tap water ad libitum. Experiments were conducted between 9:00 and 14:00 h. The behavioral testing was done during the light phase. Animals were housed in groups and acclimatized for at least one week before using them for experiments. Animals were transported in cage covered by dark cloth to the experimental room. The experimental procedures were in compliance with National Institutes of Health Guide for Care and Use of Laboratory Animals.
The rats were pretreated orally for seven days through an orogastric tube with experimental drugs (10, 25 and 50 mg/kg once daily) suspended in 0.3% carboxymethyl cellulose (CMC). The treatment was continued until the end of the experiment procedures (Singh, G. K., Garabadu, D., Muruganadam, A. V., Joshi, V. K., Krishnamurthy, S., “Antidepressant activity of Asparagus racemosus in animal models of depression,” Pharmacol. Biochem. Behav. (2009) 91(3):283-90). Scopolamine was dissolved in water for injection and administered on day 7 after one hour of drug treatment administration. Donepezil (5 mg/kg; i.p.)
was used as standard drug. On day 8 the behavioral experiment was performed. The animals were sacrificed and hippocampus was micro-dissected using the coordinates of the rat brain atlas. All control group animals were treated with the 0.3 ml of vehicle (0.3% CMC suspension) equal to the volume of experimental drugs (Ohj a, R., et al., “Asparagus recemosus enhances memory and protects against amnesia in rodent models,” Brain Cogn. (2010) October; 74(1): 1-9).
Spatial recognition memory, general exploratory behavior, and anxiety-like behavior were assessed by the Y-maze test. Y-maze consists of three similar arms of dimension 50 cm long, 16 cm wide and 32 cm high. In the first trial, the novel arm was blocked and the animal was allowed to move for 15 min in other two arms. In the second trial, the novel arm was opened and the animal was allowed to move for 5 min in all three arms after 4 h of the first trial. The total number of entries in all arms (for 5 min of trial-1 and trial-2) is indicative of general exploration attitude (curiosity). The % entries in known and novel arms for the 5 min period of trial 2 were considered as a measure of spatial recognition memory. Coping strategy to the novel environment was estimated by the percentage of the ratio of time spent in the novel arm to time spent in all arms and in the center of the apparatus during trial 2. The decrease in the coping behavior to the novel environment was considered as an increase in anxiety-like behavior (Krishnamurthy, S., et al., “Risperidone ameliorates post-traumatic stress disorder-like symptoms in modified stress re-stress model,” Neuropharmacology (2013) 75:62-77).

[2] = tested on: acetylcholine (ACh) level in HIP tissue; assay: Acetylcholine level in hippocampal tissue, Amplex Red kit (Example 9D); type: in vivo, Male Wistar rats; conditions: p.o. 7 days: B 50, A 50, Donepezil 3, B:A 10:50 and 50:50, Shilajit 50 mg/kg
Method: Drug solution was freshly prepared in 0.3% CMC and administered by oral gavage once a day, for a period of 7 days. Briefly, the whole experiment was conducted for 8 days. Scopolamine (1 mg/kg), a muscarinic receptor antagonist, was dissolved in normal saline (0.9% NaCl) and administered intraperitoneally 1 h after drugs administration on seventh day.
Sample preparation: The animals were killed by decapitation and the brain tissues were dissected out in ice-cold conditions and stored at −80° C. until use. Tissue was homogenized in 1.0 ml of 0.1M perchloric acid with a Potter-Elvehjem homogenizer. The homogenate was kept in the polypropylene tubes for 15 min after which 40 μl of 4M potassium acetate was added to adjust the pH to 4.0 followed by centrifugation for 15 min at 4000×g. Supernatant was used to estimate acetylcholine and AChE activities.
Samples were prepared as in Example 9C. The amount of acetylcholine in brain tissues was measured using Amplex red assay kit (Molecular Probes, Inc., USA). An acetylcholine standard curve was used in each experiment. Briefly, the reactions are initiated by adding 0.1 ml of control (10 μM H2O2) and tissue homogenates were taken in two separate polypropylene tubes and then 0.1 ml working solution of 400 μM Amplex Red reagent containing 2 U/mL HRP, 0.2 U/mL choline oxidase and 1 U/mL acetylcholinesterase were added to each tube. After incubation for 45 min, the fluorescence was recorded with the help of spectrofluorometer at 530 nm excitation and 590 nm emission wavelengths. The protein content was determined using standard protocol (Lowry, et al., 1951).
Statistical analyses: The results were expressed as means±Standard Error mean (SEM). The intergroup variation was measured by one-way ANOVA followed by Student-Newman-Keuls test. Two-way followed by Bonferroni test was employed to discover the intergroup variation in Y maze test considering groups and arms as two independent variables. Statistical analysis was done by using Graph Pad prism version 5 (San Diego, Calif.). A level of p<0.05 was accepted as statistically significant.

COc1cc2c(cc1OC)C(=O)C(CC1CCN(Cc3ccccc3)CC1)C2 (centres unmarked) [Donepezil, reference compound]
Scopolamine-induced altered exploratory behavior (total arm entries) [1]: reversed this activity
Scopolamine-induced decrease in ACh level in HIP tissue [2]: the same as 3-OH-DBP (B) (50 mg/kg) group
